Reference: a flash point compilation (Sun et al. 2020)
Counter-ions that a name gives are not always drawn.

How the values were obtained:
[1] = not given; remark: listed apart in the source
[2] = not given; remark: listed apart in the source

| SMILES | flash point | flash point [1] | flash point [2] |
| --- | --- | --- | --- |
| C1=CCC=CC1 [1,4-cyclohexadiene] | -6 °C | -11 °C |  |
| C1=CCCC=CCC1 [1,5-cyclooctadiene] | 32 °C | 35 °C |  |
| CCCCBr [1-bromobutane] | 13 °C |  | 18.00 °C |
| CCCBr [1-bromopropane] | 21 °C |  | 26.00 °C |
| CCCCl [1-chloropropane] | -31 °C |  | -18.00 °C |
| CC1=CCCCC1 [1-methylcyclohexene] | -3 °C | -1 °C |  |
| CC1=CCCC1 [1-methylcyclopentene] | -17 °C | -19 °C |  |
| COCCOC(C)=O [2-methoxyethylacetate] | 45 °C | 43 °C |  |
| N#CCCO [3-hydroxypropanenitrile] | 129 °C |  |  |
| C=CC(C)=CC [3-methyl-1,3-pentadiene] | -28 °C |  |  |
| C=Cc1cccc(C)c1 [3-methylstyrene] | 51 °C |  |  |
| CCCCCC(=O)CC [3-octanone] | 53 °C |  |  |
| CCOC(=O)CC(C)=O [3-oxobutanoic acid ethyl ester] | 70 °C |  |  |
| C=CCCBr [4-bromo-1-butene] | 9 °C |  |  |
| Brc1ccc(-c2ccccc2)cc1 [4-bromobiphenyl] | 144 °C |  |  |
| CCc1ccc(O)cc1 [4-ethylphenol] | 104 °C |  |  |
| CC(=O)CC(C)C [4-methyl-2-pentanone] | 14 °C |  |  |
| Cc1ccc(N)cc1 [4-methylaniline] | 86 °C |  |  |
| CC1CCC(O)CC1 (centres undefined) [4-methylcyclohexanol] | 70 °C |  |  |
| Cc1ccncc1 [4-methylpyridine] | 37 °C |  |  |
| C=Cc1ccc(C)cc1 [4-methylstyrene] | 45 °C |  |  |
| Cc1ccncc1 [4-picoline] | 40 °C |  |  |
| CN(C)CC1CCCCC1 [N,N-dimethylcyclohexanemethylamine] | 48 °C |  |  |
| CNC(C)C [N-methyl-2-propanamine] | -31 °C |  |  |
| CNc1ccccc1 [N-methylaniline] | 80 °C |  |  |

| SMILES | flash point | flash point [1] | flash point [2] |
| --- | --- | --- | --- |
| CC(=O)SC(C)(C)C [S-t-butyl thioacetate] | 33 °C |  |  |
| Sc1ccccc1 [benzenethiol] | 50 °C |  |  |
| N#Cc1ccccc1 [benzonitrile] | 75 °C |  |  |
| CSCc1ccccc1 [benzyl methyl sulfide] | 73 °C |  |  |
| c1ccc(CCc2ccccc2)cc1 [bibenzyl] | 129 °C |  |  |
| CCBr [bromoethane] | -20 °C |  | -23.00 °C |
| BrC(Br)Br [bromoform] | 83 °C |  |  |
| C=CC(=O)OCCCC [butyl acrylate] | 39 °C |  |  |
| Cc1ccc(C(C)C)cc1O [carvacrol] | 106 °C |  |  |
| O=C1CCC1 [cyclobutanone] | 10 °C |  |  |
| N#CC1CCCCC1 [cyclohexanecarbonitrile] | 65 °C |  |  |
| SC1CCCCC1 [cyclohexanethiol] | 43 °C |  |  |
| C1CCC2OC2C1 (centres undefined) [cyclohexene oxide] | 24 °C |  |  |
| SC1CCCC1 [cyclopentanethiol] | 25 °C |  |  |
| N#CC1CC1 [cyclopropanecarbonitrile] | 32 °C |  |  |
| NC1CC1 [cyclopropylamine] | -25 °C |  |  |
| CC(C)(C)SSC(C)(C)C [di-tert-butyl disulfide] | 67 °C |  |  |
| CC(C)(C)OOC(C)(C)C [di-tert-butyl peroxide] | 12 °C |  |  |
| CCCCOC(=O)c1ccccc1C(=O)OCCCC [dibutyl phthalate] | 117 °C |  |  |
| CCOC(=O)c1ccccc1C(=O)OCC [diethyl phthalate] | 160 °C |  |  |
| CCOS(=O)OCC [diethyl sulfite] | 53 °C |  |  |
| CC(C)NC(C)C [diisopropylamine] | -6 °C |  |  |
| COC(=O)OC [dimethyl carbonate] | 18 °C |  | -1.00 °C |
| CNC [dimethylamine] | -18 °C |  |  |
| C=CC1CCCCC1 [ethenylcyclohexane] | 22 °C |  |  |

| SMILES | flash point | flash point [1] | flash point [2] |
| --- | --- | --- | --- |
| CCOC(=O)CCl [ethyl chloroacetate] | 53 °C |  |  |
| CCC1CCCC1 [ethyl cyclopentane] | 15 °C |  |  |
| O=C1OCCO1 [ethylene carbonate] | 150 °C |  |  |
| FC1CCCCC1 [fluorocyclohexane] | 5 °C |  |  |
| OCC(O)CO [glycerol] | 184 °C |  |  |
| Oc1ccc(O)cc1 [hydroquinone] | 165 °C |  |  |
| Ic1ccccc1 [iodobenzene] | 74 °C |  |  |
| C=C(C)C=O [isobutenal] | -0 °C |  |  |
| C=C(C)C [isobutene] | -76 °C |  |  |
| COC(=O)C(C)C [methyl isobutyrate] | 3 °C |  |  |
| C=C(C)C(C)=O [methyl isopropenyl ketone] | 13 °C |  |  |
| CC1=CC=CC1 [methylcyclopentadiene] | 26 °C |  |  |
| C1COCCN1 [morpholine] | 35 °C |  | 38.00 °C |
| CCCOC(C)=O [n-propyl acetate] | 10 °C |  |  |
| Cc1ccc(O)cc1 [p-cresol] | 86 °C |  |  |
| O=C=Nc1ccccc1 [phenyl isocyanate] | 51 °C |  |  |
| c1cc[nH]c1 [pyrrole] | 33 °C |  |  |
| c1ccc2ncccc2c1 [quinoline] | 105 °C |  |  |
| CCC(C)c1ccccc1 (centres undefined) [sec-butylbenzene] | 45 °C |  |  |
| CSC(C)(C)C [t-butyl methyl sulfide] | -3 °C |  |  |
| CC(C)(C)ON=O [t-butyl nitrite] | -23 °C |  |  |
| CC(C)(C)N [tert-butylamine] | -9 °C |  |  |
| C1CCSC1 [thiacyclopentane] | 12 °C |  |  |
| c1ccc(CN(Cc2ccccc2)Cc2ccccc2)cc1 [tribenzylamine] | 203 °C |  |  |
| CCCCCCCCCCCc1ccccc1 [undecylbenzene] | 144 °C |  |  |

Now from value to molecule:

| flash point | flash point [1] | flash point [2] | SMILES |
| --- | --- | --- | --- |
| 41 °C | 42 °C |  | C#CCCCCCC#C [1,8-nonadiyne] |
| 21 °C |  | -10.00 °C | CC(C)CCl [1-chloro-2-methylpropane] |
| 50 °C | 48 °C |  | C#CCCCCCCCC [1-decyne] |
| 77 °C | 73 °C |  | C=CCCCCCCCCCC [1-dodecene] |
| 29 °C | 24 °C |  | CC(C)=CC=C(C)C [2,5-dimethyl-2,4-hexadiene] |
| 44 °C |  | 41.00 °C | CCOCCO [2-ethoxyethanol] |
| -11 °C | -10 °C |  | CC#CCCC [2-hexyne] |
| 40 °C |  |  | CCC(C)C(C)O (centres undefined) [3-methyl-2-pentanol] |
| 74 °C |  | 70.00 °C | CC(C)CC(=O)O [3-methylbutanoic acid] |
| 65 °C |  |  | CCCCCC(O)CC (centres undefined) [3-octanol] |
| 34 °C |  |  | CCC(O)CC [3-pentanol] |
| 38 °C |  |  | CCCCCC(C)CCC (centres undefined) [4-methylnonane] |
| 46 °C |  |  | CCCCC=CCCCC [5-decene] |
| 88 °C |  |  | CCCCCC(=O)CCCCC [6-undecanone] |
| 35 °C |  |  | CN(C)CCCN [N,N-dimethyl-1,3-propanediamine] |
| 116 °C |  |  | CCCCNC(C)=O [N-butylacetamide] |
| 110 °C |  |  | CCNC(C)=O [N-ethylacetamide] |
| 1 °C |  |  | CCCCNC [N-methylbutylamine] |
| 16 °C |  |  | CC(=O)OC(C)(C)C [acetic acid, 1,1-dimethylethyl ester] |
| 90 °C |  |  | CC=Cc1ccc(OC)cc1 [anethole] |
| 32 °C |  |  | CCCCOC(=O)CC [butyl propionate] |
| 75 °C |  |  | CC(C)=CCCC(C)CC=O (centres undefined) [citronellal] |
| 113 °C |  |  | CCCCSSCCCC [dibutyl disulfide] |
| 167 °C |  |  | CCCCOC(=O)CCCCCCCCC(=O)OCCCC [dibutyl sebacate] |

| flash point | flash point [1] | flash point [2] | SMILES |
| --- | --- | --- | --- |
| 60 °C |  |  | CCCCSCCCC [dibutyl sulfide] |
| 96 °C |  |  | CCOC(=O)CCCC(=O)OCC [diethyl glutarate] |
| 69 °C |  |  | CCN(C#N)CC [diethylcyanamide] |
| 51 °C |  |  | COCCOCCOC [diethylene glycol dimethyl ether] |
| 7 °C |  |  | CCCNCCC [dipropylamine] |
| 88 °C |  |  | CCOC(=O)c1ccccc1 [ethyl benzoate] |
| 112 °C |  |  | CCCCCCC(=O)O [heptanoic acid] |
| 40 °C |  |  | CC(C)COC(=O)C(C)C [isobutyl isobutyrate] |
| 88 °C |  |  | CCCCCC#CC(=O)OC [methyl 2-octynoate] |
| 11 °C |  |  | CCCC(=O)OC [methyl butyrate] |
| 17 °C |  |  | COC(=O)C1CC1 [methyl cyclopropanecarboxylate] |
| 52 °C |  |  | CCCCCCC(=O)OC [methyl heptanoate] |
| 6 °C |  |  | CCC(=O)OC [methyl propionate] |
| 71 °C |  |  | CCCCCCCCC=O [n-nonanal] |
| 25 °C |  |  | CCCCCOC(C)=O [n-pentyl acetate] |
| 49 °C |  |  | CCc1ccccc1CC [o-diethyl benzene] |
| 8 °C |  | 12.00 °C | CCCCC=O [pentanal] |
| 51 °C |  |  | CCC(=O)O [propionic acid] |
| 39 °C |  |  | CCC(C)SC(C)CC (centres undefined) [s-butyl sulfide] |
| -9 °C |  |  | CC(C)(C)OC=O [t-butyl formate] |
| 20 °C |  |  | CCC(=O)OC(C)(C)C [t-butyl propionate] |
| 15 °C |  | 22.00 °C | CC(=O)OC(C)(C)C [tert-butyl acetate] |
| -28 °C |  |  | COC(C)(C)C [tert-butyl methyl ether] |
| -17 °C |  |  | CCN(CC)CC [triethylamine] |
